Ten compounds from PMC12604929, “Tumor-specific cytotoxicity of pyrazole-based chalcone derivatives in human oral squamous cell carcinoma cell lines” (Turkish Journal of Biology, 2025) can be followed below.

Data set [1] in a line: MTT cytotoxicity, three normal oral cell types together (mean). The data set is classed as cell-based, human. The settings on record: female, human; mean of HGF, HPLF, HPC; read-out: CC50 normal oral cells mean (D). The source says:
(§1) Estimation of CC50 values. […] The mean pCC50 values for normal cells and tumor cell lines were defined as N and T, respectively.

Data set [2] concerns human OSCC cell lines (Ca9-22, HSC-2, HSC-3, HSC-4). As to the kind of experiment: MTT cytotoxicity, four OSCC cell lines together (mean, TS, PSE, type of growth inhibition). The data set is classed as cell-based. The settings on record: for CC50: Homo sapiens, mean of Ca9-22, HSC-2, HSC-3, HSC-4, read-out: CC50 OSCC mean (B); for type of growth inhibition on the OSCC cell lines: from dose-response curves, Figure 4, cytostatic = without complete cytotoxicity, cytotoxic = complete cell death; for TS (D/B) tumor-selectivity index: mean CC50 normal cells / mean CC50 OSCC cell lines. Here is the method:
TS was calculated using the following equation: TS=mean CC50 against three normal oral cell types/mean CC50 against four OSCC cell lines (HGF, HPLF, HPC vs. Ca9-22, HSC-2, HSC-3, HSC-4). Since both Ca9-22 and HGF cells were derived from the gingival tissue, the relative sensitivity of these cells was also compared (as: CC50 against HGF/ CC50 against Ca9-22).
PSE was calculated by the following equation: PSE=mean CC50 against three normal oral cell types/(CC50 against four OSCC cell lines)2 × 100 (HGF, HPLF, HPC vs. Ca9-22, HSC-2, HSC-3, HSC-4); and as CC50 against HGF/(CC50 against Ca9-22)2 × 100 using the pair of cell types from the same tissue (gingiva) (see Table 1).
as §1

The nature of data set [3]: MTT cytotoxicity assay, HPC. The settings on record: female, human, human pulp cells (HPC), normal oral cells, average of three determinations. Type of data set: cell-based, human. For orientation: Formazan colour is commonly taken as a measure of viable cells.
Description: (§2) The viable cell number was determined in triplicate by the MTT method, following the approach adopted in previous studies ([Nagai et al., 2018]; [Shi et al., 2018] ). Briefly, the cells were incubated for 2 h with 0.2 mg/mL of MTT, and the formed formazan was dissolved with 0.1 mL of DMSO to determine the relative viable cell number at 560 nm.
(§3) Cells were inoculated at 2×10^3 cells/0.1 ml in a 96-microwell plate. […] Cells were incubated further for 48 h and the relative viable cell number was then determined by the MTT method and expressed as the absorbance of the cell lysate at 560 nm, using a microplate reader (Infinite F50R; TECAN, Männedorf, Switzerland) [49, 50]. Control cells were treated with the same amounts of DMSO and the cell damage induced by DMSO was subtracted from that induced by test agents. The concentration of compound that reduced the viable cell number by 50% (CC50) was determined from the dose–response curve and the mean value of CC50 for each cell type was calculated from triplicate assays.
(§4) All of these cells were cultured at 37°C in DMEM supplemented with 10% heat-inactivated fetal bovine serum, 100 units/ml, penicillin G and 100 µg/ml streptomycin sulfate under a humidified 5% CO2 atmosphere.
The test system of data set [4] is HSC-3 cells (OSCC, tongue). The data set can be described thus: MTT cytotoxicity assay, HSC-3. The settings on record: for CC50: Homo sapiens, HSC-3, OSCC, 48 h, MTT, average of three determinations. The data set is classed as cell-based, human.
Description: as §2, §3
(§5) Human oral squamous cell carcinoma (OSCC) cell lines [Ca9-22 (derived from gingival tissue); and HSC-2, HSC-3, HSC-4 (derived from tongue)] were purchased from Riken Cell Bank (Tsukuba, Japan). All of these cells were cultured at 37°C in DMEM supplemented with 10% heat-inactivated fetal bovine serum, 100 units/ml, penicillin G and 100 µg/ml streptomycin sulfate under a humidified 5% CO2 atmosphere. Cell morphology was checked periodically under a light microscope (EVOS FL; Thermo Fisher Scientific, Waltham, MA, USA).
Data set [5] relates to HSC-2 cells (OSCC, tongue). The data set can be described thus: MTT cytotoxicity assay, HSC-2. The settings on record: Homo sapiens, HSC-2, 48 h, read-out: CC50 HSC-2.
Description: as §2, §3, §5
Data set [6] in a line: MTT cytotoxicity assay, HPLF. Type of data set: cell-based, human. The settings on record: female, human, normal oral cells, average of three determinations.
Description: as §2, §3, §4
The test system of data set [7] is HSC-4 cells (OSCC, tongue). As to the kind of experiment: MTT cytotoxicity assay, HSC-4. Conditions: Homo sapiens, HSC-4, 48 h, average of three determinations. The data set is classed as cell-based, human.
Description: as §2, §3, §5
Data set [8] has as its system Ca9-22 cells (OSCC, gingival tissue). As to the kind of experiment: MTT cytotoxicity assay, Ca9-22. The data set is classed as cell-based, human. The settings on record: for TS (C/A) tumor-selectivity index: CC50 HGF / CC50 Ca9-22 (both gingival); for CC50: Homo sapiens, Ca9-22, OSCC, 48 h, MTT, average of three determinations; for PSE (C/A^2)x100 potency-selectivity expression: HGF vs Ca9-22 (both gingival).
Description: as §2, §3, §5

A short description of data set [9]: MTT cytotoxicity assay, HGF. The data set is classed as cell-based, human. The settings on record: human, human gingival fibroblasts (HGF), normal oral cells, average of three determinations.
Description: as §2, §3, §5
Another data set concerns HSC-2 cells. The data set can be described thus: Cell-cycle analysis (propidium iodide, cell sorting). The data set is classed as cell-based, human. Conditions: HSC-2, 24 h, 1 μM; control 1.9 %. Here is the method: Cell-cycle analysis was performed following the process described in the literature ([Kantoh et al., 2010]; [Nagai et al., 2018]; [Shi et al., 2018]), details of which are presented in a supplementary file. Briefly, cells (approximately 10^6 in number) were fixed with paraformaldehyde in PBS(−) and treated with RNase A. After staining with propidium iodide in the presence of 0.01% Nonidet-40 to prevent cell aggregation, the cells were filtered through Falcon cell strainers and then subjected to cell sorting, analyzed with Cell Sorter Software (version 2.1.2) (SONY Imaging Products and Solution Inc., Kanagawa, Japan).
HSC-2 cells were incubated for 24 h with actinomycin D (Act.D) (positive control of apoptosis induction) or MS4, 7, or 8, or without treatment (control), and subjected to cell cycle analysis. […] D (1 μM) (p < 0.05) from 1.9 % to 12.5%. […] The cell cycle analysis was performed only with HSC-2 cells; therefore, experiments with other OSCC cell lines should be conducted to support the generalization of our findings.
Treated and untreated cells (approximately 10^6 cells) were harvested, fixed with 1% paraformaldehyde in PBS without calcium and magnesium ions [PBS(−)]. Fixed cells were then washed twice with PBS(−) and treated for 30 min with 400 μl of 0.2 mg/ml RNase A (preheated for 10 min at 100 °C to inactivate DNase) to degrade RNA. Cells were then washed twice with PBS(−) and stained for 15 min with 0.01% propidium iodide (PI) in the presence of 0.01% NP-40 in PBS(−) to prevent cell aggregation. After filtering through Falcon® cell strainers ([…]) (Corning, NY, USA) to remove aggregated cells, PI-stained cells were subjected to cell sorting (SH800 Series; SONY Imaging Products and Solutions Inc., Kanagawa, Japan). Cell-cycle analysis was performed with Cell Sorter Software version 2.1.2. (SONY Imaging Products and Solution Inc.).

Molecules are shown by their SMILES. Numbered stars: 1 amine (or outer) side, 2 acyl side, 3 side chain; on linkers, the order of the positions; unused ones are H or OH. Bridge positions count the residues as written; N and C are the ends. Square brackets hold non-standard residues; d marks the D form. Peptide text beside a SMILES is read from it. I, II: the chains in the order shown. Actinocin(9to1) = Cc1c2oc3c(C)ccc(C(=O)[*:1])c3nc-2c(C(=O)[*:2])c(N)c1=O; NMeV = CN[C@H](C(=O)O)C(C)C; Sar = CNCC(=O)O

One may read the CC50 as the concentration that lowers cell viability or growth by half. Regarding `CN(C)C=NS(=O)(=O)c1ccc(-n2cc(C=O)c(-c3ccccc3)n2)cc1` [MS2], the 50% cytotoxic concentration (CC50) at 48 h in data set [1] was 241 µM; in data set [3], 214 µM; in data set [6], 262 µM; in data set [9] it was 245 µM. Also, the CC50 in [2] amounted to 53.3 µM; in data set [4], 74.3 µM; in [5], 41.3 µM; in [7] it was 63 µM; in [8] it was 34.3 µM. Further, the “type of growth inhibition on the OSCC cell lines” value (“type of growth inhibition” for short) in data set [2] is “cytotoxic effects”. The “TS (D/B) tumor-selectivity index” value in [2] is recorded as 4.5. Also, the “TS (C/A) tumor-selectivity index” value in [8] turned out to be 7.1.
On to `NS(=O)(=O)c1ccc(-n2cc(/C=C/C(=O)c3cccs3)c(-c3ccccc3)n2)cc1` [MS10, (E)-4-(4-(3-Oxo-3-(thiophen-2-yl)prop-1-en-1-yl)-3-phenyl-1H-pyrazol-1-yl)benzenesulfonamide], for which the CC50 at 48 h turned out to be 48 µM in data set [1], 6.7 µM in data set [3], 121 µM in data set [6] and 16.6 µM in data set [9]. In addition, the CC50 in data set [2] is 1.86 µM; in data set [4], 4.63 µM; in data set [5], 0.38 µM; in data set [7], 1.78 µM; in data set [8], 0.63 µM. In addition, the “type of growth inhibition” value in data set [2] is “mixed effects”. In addition, the “TS (D/B) tumor-selectivity index” value in [2] worked out at 25.9. Further, the “TS (C/A) tumor-selectivity index” value in data set [8] amounted to 26.4. Further, in data set [8], the “PSE (C/A^2)x100 potency-selectivity expression” value is given as 4191.
With `C/C(=N\Nc1ccc(S(N)(=O)=O)cc1)c1ccccc1` [MS1, (E)-4-(2-(1-phenylethylidene)hydrazinyl)benzenesulfonamide], the CC50 at 48 h was determined as 116 µM in data set [1], 51 µM in data set [3], 246 µM in data set [6] and 50.7 µM in data set [9]. Also, the CC50 in data set [2] stood at 25.9 µM; in data set [4], 53.7 µM; in [5], 14.3 µM; in data set [7], 15.7 µM; in data set [8], 20 µM. In addition, the “type of growth inhibition” value in [2] is “cytostatic effects”. Moreover, the “TS (D/B) tumor-selectivity index” value in data set [2] came out at 4.5. Moreover, the “TS (C/A) tumor-selectivity index” value in data set [8] stood at 2.5.
As for `Cc1c2oc3c(C)ccc(C(=O)N[C@@H]4C(=O)N[C@H](C(C)C)C(=O)N5CCC[C@H]5C(=O)N(C)CC(=O)N(C)[C@@H](C(C)C)C(=O)O[C@@H]4C)c3nc-2c(C(=O)N[C@@H]2C(=O)N[C@H](C(C)C)C(=O)N3CCC[C@H]3C(=O)N(C)CC(=O)N(C)[C@@H](C(C)C)C(=O)O[C@@H]2C)c(N)c1=O` [Act.D, actinomycin D, reference compound] (I: T[dV]P[Sar][NMeV] / II: T[dV]P[Sar][NMeV]; ester I:1-I:C, II:1-II:C; linker I:N-II:N via Actinocin(9to1)), in the data set on HSC-2 cells, the subG1 cell population is recorded as 12.5%.
Turning to `O=c1[nH]cc(F)c(=O)[nH]1` [Compound 5-FU, 5-fluorouracil, reference compound], in [2], the “type of growth inhibition” value is recorded as “cytostatic effects” and the “TS (D/B) tumor-selectivity index” value is over 28.6. Moreover, the “TS (C/A) tumor-selectivity index” value in data set [8] is over 30.3.
Regarding `NS(=O)(=O)c1ccc(-n2cc(C=O)c(-c3ccccc3)n2)cc1` [MS3, 4-(4-formyl-3-phenyl-1H-pyrazol-1-yl) benzenesulfonamide], the CC50 at 48 h in data set [1] worked out at 230 µM; in data set [3], 221 µM; in data set [6] it was 217 µM; in data set [9], 253 µM. The CC50 came out at 48.6 µM in [2]; 51.7 µM in [4]; 64 µM in data set [5]; 46.3 µM in [7]; 32.3 µM in [8]. Besides, in data set [2], the “type of growth inhibition” value is “cytotoxic effects”. Further, the “TS (D/B) tumor-selectivity index” value in [2] stood at 4.7. Further, the “TS (C/A) tumor-selectivity index” value in data set [8] was 7.8.
Consider `COc1ccc(C(=O)/C=C/c2cn(-c3ccc(S(N)(=O)=O)cc3)nc2-c2ccccc2)cc1` [MS6, (E)-4-(4-(3-(4-Methoxyphenyl)-3-oxoprop-1-en-1-yl)-3-phenyl-1H-pyrazol-1-yl)benzenesulfonamide], for which the CC50 at 48 h turned out to be 120 µM in data set [1], 51.9 µM in [3], 99.7 µM in [6] and 209 µM in data set [9]. Further, the CC50 in data set [2] came out at 3.5 µM; in data set [4], 3.6 µM; in data set [5], 4.1 µM; in [7], 3.3 µM; in data set [8], 3.1 µM. Also, the “type of growth inhibition” value in data set [2] is recorded as “cytotoxic effects”. Moreover, the “TS (D/B) tumor-selectivity index” value in data set [2] was 33.9. For the same compound, the “increase of cytotoxicity against HSC-3 compared to MS4” value in data set [4] (relative to unsubstituted phenyl derivative MS4) is 1.5–2 times. Besides, the “TS (C/A) tumor-selectivity index” value in [8] worked out at 66.5. The “PSE (C/A^2)x100 potency-selectivity expression” value in [8] is given as 2115.
As to `COc1cccc2c1C(=O)c1c(O)c3c(c(O)c1C2=O)C[C@@](O)(C(=O)CO)C[C@@H]3O[C@H]1C[C@H](N)[C@H](O)[C@H](C)O1` [DXR, doxorubicin, reference compound], the CC50 at 48 h in [1] is over 9.7 µM; in [3], 9.2 µM; in data set [6], over 10 µM; in [9] it was over 10 µM. In addition, the CC50 stood at 0.18 µM in data set [2]; 0.29 µM in data set [4]; 0.12 µM in [5]; 0.09 µM in [7]; 0.22 µM in data set [8]. In data set [2], the “type of growth inhibition” value is given as “cytotoxic effects”. In addition, the “TS (D/B) tumor-selectivity index” value in [2] is given as over 54.9. In addition, the “TS (C/A) tumor-selectivity index” value in [8] is over 45.5.
For `COc1ccc(C(=O)/C=C/c2cn(-c3ccc(S(N)(=O)=O)cc3)nc2-c2ccccc2)cc1OC` [MS9, (E)-4-(4-(3-(3,4-Dimethoxyphenyl)-3-oxoprop-1-en-1-yl)-3-phenyl-1H-pyrazol-1-yl)benzenesulfonamide], the CC50 at 48 h in data set [1], in data set [3], in data set [6] and in [9] was over 400 µM each time. Further, the CC50 in data set [2] is 44.6 µM; in data set [4], 35 µM; in data set [5] it was 50.3 µM; in [7] it was 83 µM; in [8], 10 µM. The “type of growth inhibition” value in [2] is on record as “mixed effects”. In addition, the “TS (D/B) tumor-selectivity index” value in [2] was over 9.0. Further, in data set [8], the “TS (C/A) tumor-selectivity index” value was over 40.1.
Regarding `Cc1ccc(C(=O)/C=C/c2cn(-c3ccc(S(N)(=O)=O)cc3)nc2-c2ccccc2)cc1` [MS5, (E)-4-(4-(3-Oxo-3-(p-tolyl)prop-1-en-1-yl)-3-phenyl-1H-pyrazol-1-yl)benzenesulfonamide], the cytotoxic concentration (CC50) at 48 h in data set [1] was over 192 µM; in data set [3], 30.3 µM; in data set [6], over 400 µM; in [9], 145 µM. Moreover, the CC50 in data set [2] stood at 10.1 µM; in data set [4], 34.7 µM; in data set [5], 0.9 µM; in [7] it was 3.1 µM; in data set [8], 1.6 µM. The “type of growth inhibition” value in data set [2] is recorded as “cytostatic effects”. Also, the “TS (D/B) tumor-selectivity index” value in data set [2] was over 19.1. The “TS (C/A) tumor-selectivity index” value in data set [8] is given as 88.8. The “PSE (C/A^2)x100 potency-selectivity expression” value in [8] is 5426.
